Experimental findings from patent US10138255B2, “Piperazine derivatives as HIV protease inhibitors” (Merck Sharp & Dohme Corp., priority 2014, dated 2018) are described below.

The test system of this experiment is HIV-1 (H9IIIB strain). The experiment is described as follows: Cell-Based HIV Infection Assay Using a Reporter (MT4-GFP cells). The note with it: Human immunodeficiency virus 1, inflection point (IP) of viral growth inhibition; MT4-GFP cells infected with HIV-1 H9IIIB; 50% normal human serum; mean of at least two independent experiments; read-out: Cell Based IP (50% NHS). The gist of the method:
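MT4-GFP cells (HIV LTR-driven GFP) bulk-infected with HIV-1 H9IIIB at low MOI for 24 h, washed, then exposed to compounds in RPMI plus 50% normal human serum, 0.4% DMSO. Infected cells counted at 24 and 48 h; R0 = 48 h/24 h ratio, inhibition normalised to DMSO and triple-drug control; IP from 4-parameter fit.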
`COC(=O)N[C@H](C(=O)Nc1cccc(F)c1CC[C@H]1CNC2CCCS(=O)(=O)N1C2)[C@@H](c1ccc(Cl)cc1)[C@H]1CCOC(C)(C)C1` (stereo partly drawn) [Example 43, methyl {(1S,2R)-2-(4-chlorophenyl)-2-[(4S)-2,2-dimethyltetrahydro-2H-pyran-4-yl]-1-[(2-{2-[(9S)-2,2-dioxido-2-thia-1,7-diazabicyclo[4.3.1]dec-9-yl]ethyl}-3-fluorophenyl)carbamoyl]ethyl}carbamate]: the EC50 came out at 8.5 nM.

For the compound `N[C@H](C(=O)Nc1cccc(F)c1CCC1CNC2CCCS(=O)(=O)N1C2)[C@H](c1cncc(F)c1)c1ccc(Cl)c(F)c1` (stereo partly drawn) [Example 44, (βS)-4-chloro-N-{2-[2-(2,2-dioxido-2-thia-1,7-diazabicyclo[4.3.1]dec-9-yl)ethyl]-3-fluorophenyl}-3-fluoro-β-(5-fluoropyridin-3-yl)-L-phenylalaninamide], the EC50 was 4.5 nM.

Take `COc1ccc([C@H](c2ccc(Cl)cc2)[C@H](N)C(=O)Nc2cccc(F)c2CCC2CNC3CCCS(=O)(=O)N2C3)cn1` (stereo partly drawn) [Example 45, (βS)-4-chloro-N-{2-[2-(2,2-dioxido-2-thia-1,7-diazabicyclo[4.3.1]dec-9-yl)ethyl]-3-fluorophenyl}-β-(6-methoxypyridin-3-yl)-L-phenylalaninamide]: the EC50 is 3.8 nM.

Consider `COC(=O)N[C@H](C(=O)Nc1cccc(F)c1CCC1CNC2CCCS(=O)(=O)N1C2)[C@H](c1cncc(F)c1)c1ccc(Cl)c(F)c1` (stereo partly drawn) [Example 46, methyl [(1S,2S)-2-(4-chloro-3-fluorophenyl)-1-({2-[2-(2,2-dioxido-2-thia-1,7-diazabicyclo[4.3.1]dec-9-yl)ethyl]-3-fluorophenyl}carbamoyl)-2-(5-fluoropyridin-3-yl)ethyl]carbamate], for which the EC50 is 9.1 nM.

As for `COC(=O)N[C@H](C(=O)Nc1cccc(F)c1CCC1CNC2CCCS(=O)(=O)N1C2)[C@@H](c1ccc(Cl)cc1)c1ccc(OC)nc1` (stereo partly drawn) [Example 47, methyl [(1S,2S)-2-(4-chlorophenyl)-1-({2-[2-(2,2-dioxido-2-thia-1,7-diazabicyclo[4.3.1]dec-9-yl)ethyl]-3-fluorophenyl}carbamoyl)-2-(6-methoxypyridin-3-yl)ethyl]carbamate], the EC50 was found to be 18 nM.

On to `N[C@H](C(=O)Nc1cccc(F)c1CCC1CNC2CCCS(=O)(=O)N1C2)[C@@H](c1ccc(Cl)cc1)C1CC(F)(F)C1` (stereo partly drawn) [Example 48, (βR)-4-chloro-β-(3,3-difluorocyclobutyl)-N-{2-[2-(2,2-dioxido-2-thia-1,7-diazabicyclo[4.3.1]dec-9-yl)ethyl]-3-fluorophenyl}-L-phenylalaninamide], for which the EC50 was determined as 33 nM.

With `COC(=O)N[C@H](C(=O)N[C@H]1CCC[C@@H]1CC[C@H]1CN[C@@H]2CCCS(=O)(=O)N1C2)C(c1ccc(F)cc1)c1ccc(F)cc1` [Example 49, methyl [(1S)-1-[bis(4-fluorophenyl)methyl]-2-{[(1S,2R)-2-{2-[(6R,9S)-2,2-dioxido-2-thia-1,7-diazabicyclo[4.3.1]dec-9-yl]ethyl}cyclopentyl]amino}-2-oxoethyl]carbamate], the EC50 came out at 18 nM.

As to `COC(=O)N[C@H](C(=O)N[C@H]1CCC[C@@H]1CC[C@H]1CN[C@@H]2CCCS(=O)(=O)N1C2)[C@@H](c1ccc(F)cc1)C1CCOC(C)(C)C1` (stereo partly drawn) [Example 50, methyl [(1S,2R)-2-(2,2-dimethyltetrahydro-2H-pyran-4-yl)-1-{[(1S,2R)-2-{2-[(6R,9S)-2,2-dioxido-2-thia-1,7-diazabicyclo[4.3.1]dec-9-yl]ethyl}cyclopentyl]carbamoyl}-2-(4-fluorophenyl)ethyl]carbamate], the EC50 was 28 nM.

As to `N[C@H](C(=O)Nc1cccc(F)c1CCC1CNC2CCCS(=O)(=O)N1C2)[C@@H](c1ccc(F)cc1)c1cccc(C2CC2)c1` (stereo partly drawn) [Example 51, (βS)-3-cyclopropyl-N-{2-[2-(2,2-dioxido-2-thia-1,7-diazabicyclo[4.3.1]dec-9-yl)ethyl]-3-fluorophenyl}-β-(4-fluorophenyl)-L-phenylalaninamide], the EC50 turned out to be 20 nM.

Turning to `COC(=O)N[C@H](C(=O)Nc1cccc(F)c1CCC1CNC2CCCS(=O)(=O)N1C2)[C@@H](c1ccc(F)cc1)c1cccc(C2CC2)c1` (stereo partly drawn) [Example 52, methyl [(1S,2S)-2-(3-cyclopropylphenyl)-1-({2-[2-(2,2-dioxido-2-thia-1,7-diazabicyclo[4.3.1]dec-9-yl)ethyl]-3-fluorophenyl}carbamoyl)-2-(4-fluorophenyl)ethyl]carbamate], the EC50 worked out at 72 nM.

`N[C@H](C(=O)Nc1cccc(F)c1CCC1CNC2CCCS(=O)(=O)N1C2)[C@@H](c1ccc(Cl)cc1)C1CCC(F)(F)CC1` (stereo partly drawn) [Example 53, (βR)-4-chloro-β-(4,4-difluorocyclohexyl)-N-{2-[2-(2,2-dioxido-2-thia-1,7-diazabicyclo[4.3.1]dec-9-yl)ethyl]-3-fluorophenyl}-L-phenylalaninamide]: the EC50 is 24 nM.

In the case of `CC1(C)CC([C@H](c2ccc(F)cc2)[C@H](N)C(=O)N[C@H]2CCC[C@@H]2CC[C@H]2CN[C@@H]3CCCS(=O)(=O)N2C3)CCO1` (stereo partly drawn) [Example 54, (βR)-β-(2,2-dimethyltetrahydro-2H-pyran-4-yl)-N-[(1S,2R)-2-{2-[(6R,9S)-2,2-dioxido-2-thia-1,7-diazabicyclo[4.3.1]dec-9-yl]ethyl}cyclopentyl]-4-fluoro-L-phenylalaninamide], the EC50 came out at 180 nM.

On to `CC1(C)CC([C@H](c2ccc(Cl)cc2)[C@H](N)C(=O)N[C@H]2CCC[C@@H]2CC[C@H]2CN[C@@H]3CCCS(=O)(=O)N2C3)CCO1` (stereo partly drawn) [Example 55, (βR)-4-chloro-β-(2,2-dimethyltetrahydro-2H-pyran-4-yl)-N-[(1S,2R)-2-{2-[(6R,9S)-2,2-dioxido-2-thia-1,7-diazabicyclo[4.3.1]dec-9-yl]ethyl}cyclopentyl]-L-phenylalaninamide], for which the EC50 is 80 nM.

Regarding `COC(=O)N[C@H](C(=O)N[C@H]1CCC[C@@H]1CC[C@H]1CN[C@@H]2CCCS(=O)(=O)N1C2)[C@@H](c1ccc(F)cc1)c1cc(F)cc(F)c1` [Example 56, methyl [(1S,2S)-2-(3,5-difluorophenyl)-1-{[(1S,2R)-2-{2-[(6R,9S)-2,2-dioxido-2-thia-1,7-diazabicyclo[4.3.1]dec-9-yl]ethyl}cyclopentyl]carbamoyl}-2-(4-fluorophenyl)ethyl]carbamate], the EC50 was found to be 24 nM.

Take `N[C@H](C(=O)N[C@H]1CCC[C@@H]1CC[C@H]1CN[C@@H]2CCCS(=O)(=O)N1C2)[C@@H](c1ccc(F)cc1)c1cc(F)cc(F)c1` [Example 57, (βS)-β-(3,5-difluorophenyl)-N-[(1S,2R)-2-{2-[(6R,9S)-2,2-dioxido-2-thia-1,7-diazabicyclo[4.3.1]dec-9-yl]ethyl}cyclopentyl]-4-fluoro-L-phenylalaninamide]: the EC50 came to 27 nM.

For the compound `COC(=O)N[C@H](C(=O)N[C@H]1CCC[C@@H]1CC[C@H]1CN[C@@H]2CCCS(=O)(=O)N1C2)[C@@H](c1ccc(Cl)cc1)C1CCOCC1` [Example 58, methyl [(1S,2R)-2-(4-chlorophenyl)-1-{[(1S,2R)-2-{2-[(6R,9S)-2,2-dioxido-2-thia-1,7-diazabicyclo[4.3.1]dec-9-yl]ethyl}cyclopentyl]carbamoyl}-2-(tetrahydro-2H-pyran-4-yl)ethyl]carbamate], the EC50 is 59 nM.

As to `N[C@H](C(=O)Nc1cccc(F)c1CCC1CNC2CCCS(=O)(=O)N1C2)[C@@H](c1ccc(F)cc1)c1ccc(C2CC2)cc1` (stereo partly drawn) [Example 59, (βR)-4-cyclopropyl-N-{2-[2-(2,2-dioxido-2-thia-1,7-diazabicyclo[4.3.1]dec-9-yl)ethyl]-3-fluorophenyl}-β-(4-fluorophenyl)-L-phenylalaninamide], the EC50 came to 16 nM.

As to `COC(=O)N[C@H](C(=O)Nc1cccc(F)c1CCC1CNC2CCCS(=O)(=O)N1C2)[C@@H](c1ccc(F)cc1)c1ccc(C2CC2)cc1` (stereo partly drawn) [Example 60, methyl [(1S,2R)-2-(4-cyclopropylphenyl)-1-({2-[2-(2,2-dioxido-2-thia-1,7-diazabicyclo[4.3.1]dec-9-yl)ethyl]-3-fluorophenyl}carbamoyl)-2-(4-fluorophenyl)ethyl]carbamate], the EC50 came out at 9.9 nM.

Turning to `N[C@H](C(=O)Nc1cccc(F)c1CCC1CNC2CCCS(=O)(=O)N1C2)[C@H](c1ccc(F)cc1)C1CCC(F)(F)CC1` (stereo partly drawn) [Example 61, (βS)-β-(4,4-difluorocyclohexyl)-N-{2-[2-(2,2-dioxido-2-thia-1,7-diazabicyclo[4.3.1]dec-9-yl)ethyl]-3-fluorophenyl}-4-fluoro-L-phenylalaninamide], the EC50 came to 160 nM.

As to `COC(=O)N[C@H](C(=O)Nc1cccc(F)c1CCC1CNC2CCCS(=O)(=O)N1C2)[C@H](c1ccc(F)cc1)C1CCC(F)(F)CC1` (stereo partly drawn) [Example 62, methyl [(1S,2S)-2-(4,4-difluorocyclohexyl)-1-({2-[2-(2,2-dioxido-2-thia-1,7-diazabicyclo[4.3.1]dec-9-yl)ethyl]-3-fluorophenyl}carbamoyl)-2-(4-fluorophenyl)ethyl]carbamate], the EC50 came to 190 nM.

Regarding `COC(=O)N[C@H](C(=O)Nc1cccc(F)c1CCC1CNC2CCCS(=O)(=O)N1C2)[C@@H](c1ccc(F)cc1)c1cccc(C(F)(F)F)c1` (stereo partly drawn) [Example 63, methyl [(1S)-2-({2-[2-(2,2-dioxido-2-thia-1,7-diazabicyclo[4.3.1]dec-9-yl)ethyl]-3-fluorophenyl}amino)-1-{(S)-(4-fluorophenyl)[3-(trifluoromethyl)phenyl]methyl}-2-oxoethyl]carbamate], the EC50 was found to be 14 nM.

In the case of `N[C@H](C(=O)Nc1cccc(F)c1CCC1CNC2CCCS(=O)(=O)N1C2)[C@H](c1ccc(F)cc1)C1CC(F)(F)C1` (stereo partly drawn) [Example 64, (βS)-β-(3,3-difluorocyclobutyl)-N-{2-[2-(2,2-dioxido-2-thia-1,7-diazabicyclo[4.3.1]dec-9-yl)ethyl]-3-fluorophenyl}-4-fluoro-L-phenylalaninamide], the EC50 was found to be 260 nM.
